According to ChEMBL document CHEMBL3525971 (Drug Metab Dispos, 2011):

What was measured:
[1] = Biliary excretion in castrated pig assessed as unchanged drug level treated with finasteride at 0.8 mg/kg administered as intrajejunal dose 20 mins after ketoconazole administration measured during 6 hrs sampling by UPLC-tandem mass spectrometry; assay type: ADME, organism-based, Sus scrofa, Bile; parameters: dose 0.8 mg/kg; conditions: in vivo, other
[2] = Biliary excretion in castrated pig assessed as unchanged drug level treated with finasteride at 0.2 mg/kg, iv measured during 6 hrs sampling by UPLC-tandem mass spectrometry; assay type: ADME, organism-based, Sus scrofa, Bile; parameters: dose 0.2 mg/kg, route intravenous; conditions: in vivo
[3] = Apparent biliary clearance in castrated pig treated with finasteride at 0.8 mg/kg administered as intrajejunal dose 20 mins after ketoconazole administration by UPLC-tandem mass spectrometry; assay type: ADME, organism-based, Sus scrofa, Bile; parameters: dose 0.8 mg/kg; conditions: in vivo
[4] = Apparent biliary clearance in castrated pig treated with finasteride at 0.2 mg/kg, iv by UPLC-tandem mass spectrometry; assay type: ADME, organism-based, Sus scrofa, Bile; parameters: dose 0.2 mg/kg, route intravenous; conditions: in vivo
[5] = Apparent biliary clearance in castrated pig treated with finasteride at 0.8 mg/kg administered as intrajejunal dose by UPLC-tandem mass spectrometry; assay type: ADME, organism-based, Sus scrofa, Bile; parameters: dose 0.8 mg/kg; conditions: in vivo
[6] = Drug excretion in castrated pig urine assessed as unchanged drug level treated with finasteride at 0.2 mg/kg, iv measured during 6 hrs sampling by UPLC-tandem mass spectrometry; assay type: ADME, organism-based, Sus scrofa; parameters: dose 0.2 mg/kg, route intravenous; conditions: in vivo
[7] = Biliary excretion in castrated pig assessed as unchanged drug level treated with finasteride at 0.8 mg/kg administered as intrajejunal dose measured during 6 hrs sampling by UPLC-tandem mass spectrometry; assay type: ADME, organism-based, Sus scrofa, Bile; parameters: dose 0.8 mg/kg; conditions: in vivo, other
[8] = Drug excretion in castrated pig urine assessed as unchanged drug level treated with finasteride at 0.8 mg/kg administered as intrajejunal dose measured during 6 hrs sampling by UPLC-tandem mass spectrometry; assay type: ADME, organism-based, Sus scrofa; parameters: dose 0.8 mg/kg; conditions: in vivo, other
[9] = Drug excretion in castrated pig urine assessed as unchanged drug level treated with finasteride at 0.8 mg/kg administered as intrajejunal dose 20 mins after ketoconazole administration measured during 6 hrs sampling by UPLC-tandem mass spectrometry; assay type: ADME, organism-based, Sus scrofa; parameters: dose 0.8 mg/kg; conditions: in vivo, other
[10] = AUC (0 to 6 hrs) in castrated pig plasma withdrawn from portal vein dosed via intrajejunal route by UPLC-tandem mass spectrometry; conditions: male
[11] = Cmax in castrated pig plasma withdrawn from portal vein at 10 mg/kg dosed via intrajejunal route by HPLC-UV; conditions: male
[12] = Half life in castrated pig plasma withdrawn from femoral vein at 10 mg/kg dosed via intrajejunal route by HPLC-UV; conditions: male
[13] = AUC (0 to 6 hrs) in castrated pig plasma withdrawn from femoral vein dosed via intrajejunal route by UPLC-tandem mass spectrometry; conditions: male
[14] = Tmax in castrated pig plasma withdrawn from femoral vein at 10 mg/kg dosed via intrajejunal route by HPLC-UV; conditions: male
[15] = Half life in castrated pig plasma withdrawn from portal vein at 10 mg/kg dosed via intrajejunal route by HPLC-UV; conditions: male
[16] = Cmax in castrated pig plasma withdrawn from femoral vein at 10 mg/kg dosed via intrajejunal route by HPLC-UV; conditions: male
[17] = Tmax in castrated pig plasma withdrawn from portal vein at 10 mg/kg dosed via intrajejunal route by HPLC-UV; conditions: male

SMILES | Ae [1] [µmol] | Ae [2] [µmol] | CL(app) [3] [mL/min/kg] | CL(app) [4] [mL/min/kg] | CL(app) [5] [mL/min/kg] | Ae [6] [µmol] | Ae [7] [µmol] | Ae [8] [µmol] | Ae [9] [µmol] | AUC(0-t) at 6 h [10] [µM·h] | Cmax [11] [µM] | half-life [12] [h] | AUC(0-t) at 6 h [13] [µM·h] | Tmax [14] [h] | half-life [15] [h] | Cmax [16] [µM] | Tmax [17] [h]
CC(C)(NC(=O)[C@H]1CC[C@H]2[C@@H]3CC[C@H]4NC(=O)C=C[C@]4(C)[C@H]3CC[C@]12C)C(=O)O | 0.7 | 0.6 | 1.2 | 3.6 | 2.4 | 1.2 | 1.2 | 8.5 | 3.4 | – | – | – | – | – | – | – | –
CC(=O)N1CCN(c2ccc(OCC3COC(Cn4ccnc4)(c4ccc(Cl)cc4Cl)O3)cc2)CC1 (configuration not stated) [KETOCONAZOLE] | – | – | – | – | – | – | – | – | – | 22 | 9 | 4.1 | 13 | 1.8 | 3.1 | 3 | 0.7
